# Measurements taken from US20150283120A1, “ANTIBIOTIC METHODS AND COMPOSITIONS FOR BACTERIA INFECTIONS” (THE UNIVERSITY OF CHICAGO, priority 2012, published 2015).
# Entries after “also recorded” stand apart in the source; their conditions may differ. Structures can show the parent of a compound that is named as a salt. Where two headings read alike, the source gives them in different places.
# What was measured:
# [1] = system: vraSR transcription (Pvra::lux); type: cell-based, Staphylococcus aureus; details: compound 10 μM + oxacillin 2 μg/mL; for RL avg (relative luminescence): ratio of LU to oxacillin alone, four runs
# Experimental: (§1) In the secondary screen each microtiter plate contained either cells in TSB alone (16 replicates), cells with oxacillin (2 μg/mL, 31 replicates), or cells with test compound and oxacillin (2 μg/mL, 49 wells). Each compound was assayed in four separate biological replicates.
# (§2) All compounds classified in the primary screen as synergists that were vraSR-stimulating or -repressing (as shown in Table 8) were screened in a secondary assay for their effects on both growth and Pvra::lux induction by oxacillin. […] Each compound was tested four separate times at 10 μM in the presence of oxacillin (2 μg/mL) and luminescence was measured every 15 minutes. Relative growth (RG) and relative luminescence (RL) was calculated as the ratio between the OD600 or max LU value in the presence of compound and oxacillin over the average from pooled control values obtained from the same plate. […] Compounds that produced an average RG (ratio of the OD600 of the culture grown with test compound combined with oxacillin to that of oxacillin alone) of <0.8 were classified as oxacillin synergists or potentiators. The relative luminescence (RL) was the ratio of the LU produced in the presence of the test compound combined with oxacillin to that produced by oxacillin alone. Compounds were classified as “vraSR repressors” (mean RL of <0.8), “vraSR stimulators”, (mean RL>1.2), and “vraSR neutral” (mean RL between 0.80-1.2). […] In contrast, 34 compounds had no effect on growth in the presence of oxacillin (“un” in the OD600 category). Among the oxacillin potentiators, there were 2 vraSR stimulators, 3 vraSR neutral compounds and 10 vraSR repressors.
# [2] = system: MRSA strain USA300 Pvra-lux; type: cell-based, Staphylococcus aureus; details: compound 10 μM + oxacillin 2 μg/mL; for RG avg (relative growth): ratio of OD600 to oxacillin alone, four runs
# Experimental: as §1, §2
# [3] = system: MRSA strain USA300-isolate 923; test: Checkerboard MIC testing of compounds with oxacillin; type: cell-based, Staphylococcus aureus; details: for change of the MIC of oxacillin with compound concentration: strain 923, checkerboard
# [4] = system: vraR transcription; test: Tertiary screen: qRT-PCR of vraR in strain 923; type: cell-based, Staphylococcus aureus; details: for classification of lux screen result against qRT-PCR (true/false repressor or stimulator): in the presence of oxacillin; for Effect on vraSR Transcription: With oxacillin / Effect on vraSR Transcription: Compound alone: qRT-PCR of vraR; for Effect on vraSR Transcription: With oxacillin: compound 10 μM + oxacillin 2 μg/mL; for Effect on vraSR Transcription: Compound alone: compound 10 μM, no oxacillin
# [5] = system: MRSA strain 8004-01; test: Checkerboard oxacillin + compound, strain 8004-01; design: MIC OX / MIC OX (+) / MIC cmpd alone: unit not given beside the values; details: strain 8004-1 (ST239)
# [6] = system: diverse MRSA strains; test: MIC of oxacillin with a single concentration of compound in multiple MRSA strains; type: cell-based, Staphylococcus aureus
# Experimental: Testing potentiation of oxacillin by compounds in multiple MRSA strains: In order to be considered a synergistic agent in therapy of MRSA infection, it must be effective as a potentiator in diverse MRSA strains. To determine whether the oxacillin potentiators were effective against MRSA strains besides USA300, a single effective concentration of three compounds that were not known as antibiotics—gossypol, pyrvinium and clomiphene—were tested against multiple MRSA genetic backgrounds. Each compound was tested at a single optimal concentration, determined in the checkerboard assays, in combination with various concentrations of oxacillin. The strains included in this panel were from diverse genetic backgrounds as determined by multilocus sequence type (MLST) and contained a variety of SCCmec types. […] The MIC80 was […] for clomiphene, gossypol, and pyrvinium, respectively.
# [7] = system: VISA 2283; test: microbe, parasite or virus in culture; type: cell-based, Staphylococcus aureus; design: MIC (in combination) Van+: unit not given beside the values; details: for MIC: Staphylococcus aureus; for Synergy category: with vancomycin
# Text: (§3) As shown in the analysis of the checkerboard assays (Table 6), gossypol fully potentiated vancomycin (FIC i<0.5) in hVISA, VISA, VRS2 and VRS1. […] Clomiphene partially potentiated vancomycin in hVISA, VISA, and VRS1 and it fully potentiated in strain VRS2.
# [8] = system: VRS2; test: microbe, parasite or virus in culture; type: cell-based, Staphylococcus aureus; details: Staphylococcus aureus
# Text: as §3
# [9] = system: hVISA 2275; test: microbe, parasite or virus in culture; type: cell-based, Staphylococcus aureus; details: for MIC: Staphylococcus aureus
# Text: as §3
# [10] = system: VRS1; test: microbe, parasite or virus in culture; type: cell-based, Staphylococcus aureus; details: for MIC: Staphylococcus aureus; for Synergy category: with vancomycin
# Text: as §3
structure (smiles),measurement,setting,value
"CCn1cc(C(=O)O)c(=O)c2cc(F)c(N3CCNCC3)cc21 [Norfloxacin, 1-ethyl-6-fluoro-4-oxo-7-piperazin-1-yl-1H-quinoline-3-carboxylic acid]",Effect on vraSR transcription,[1],repress (“vraSR repressors” (mean RL of <0.8))
same,RL avg (relative luminescence),[1],0.33
same,OD600 category,[2],inhibited (of <0.8 were classified as oxacillin synergists or potentiators)
same,RG avg (relative growth),[2],0.40
same,change of the MIC of oxacillin with compound concentration,[3],dose dependent decrease
same,classification of lux screen result against qRT-PCR (true/false repressor or stimulator),[4],true vraSR expression repressors
same,Effect on vraSR Transcription: With oxacillin,[4],repress
"CCN(CC)CCOc1ccc(/C(=C(/Cl)c2ccccc2)c2ccccc2)cc1 [Clomiphene citrate (Z,E), 2-(4-(2-chloro-1,2-diphenylethenyl)phenoxy)-N,N-diethyl-ethanamine]",oxacillin MIC,"[3]; strain 923, 24 h, compound 0.25 μM",32 µg/mL
same,oxacillin MIC,"[3]; strain 923, 24 h, compound 0.5 μM",16 µg/mL
same,oxacillin MIC,"[3]; strain 923, 24 h, compound 1 μM",32 µg/mL
same,oxacillin MIC,"[3]; strain 923, 24 h, compound 2 μM",32 µg/mL
same,oxacillin MIC,"[3]; strain 923, 24 h, compound 4 μM",8 µg/mL
same,oxacillin MIC,"[3]; strain 923, 24 h, compound 8 μM",8 µg/mL
same,oxacillin MIC,"[3]; strain 923, 24 h, compound 16 μM",2 µg/mL
same,change of the MIC of oxacillin with compound concentration,[3],dose dependent decrease
same,"bactericidal effect of oxacillin (MBC, >99.9% killing)","[3]; strain 923, wells with FICi≦0.5 spotted on TSA",increased the bactericidal effect of oxacillin
same,FIC Compound,[5],0.5
same,FIC Ox,[5],.03
same,MIC cmpd alone,[5],10.4
same,MIC cmpd +,[5]; compound in combination with oxacillin,5.2 µg/mL
same,FICi,[5]; oxacillin + compound,0.53
same,MIC OX (+),[5]; oxacillin in combination with compound,16
same,MIC 80 of Ox in presence of compound,"[6]; panel of 11 MRSA isolates, clom 3.8 μM, gos 15 μM, pyr 0.5 μM",2 µg/mL
same,MIC50 of oxacillin in the presence of compound,[6]; panel of strains,0.5 µg/mL
same,MIC80 of oxacillin in the presence of compound,[6]; panel of strains,0.002 µg/mL
same,fold decrease in the oxacillin MIC50,"[6]; panel of strains, with compound against oxacillin alone",32 fold
same,classification of lux screen result against qRT-PCR (true/false repressor or stimulator),[4],true vraSR expression repressors
same,Effect on vraSR Transcription: With oxacillin,[4]; listed as clomifene,vraR inhibitors; also recorded: repress
same,MIC,"[7]; VISA 2283, compound alone, read-out: MIC compound",12 µg/mL
same,FICi V + compound,[7]; VISA 2283,0.75
same,Van FIC,[7]; VISA 2283,0.5
same,compound FIC,[7]; VISA 2283,0.25
same,fold decrease Van MIC,[7]; VISA 2283,2 fold
same,MIC (in combination) compound+,"[7]; VISA 2283, compound MIC with the indicated Van concentration",3
same,MIC (in combination) Van+,"[7]; VISA 2283, vancomycin MIC in combination with compound",4
same,Synergy category,[7]; VISA 2283,partially potentiated (partially potentiated vancomycin (FIC i>0.5 and <1.0))
same,Synergy category,"[7]; VISA 2283, listed as Clo",partial (partially potentiated vancomycin (FIC i>0.5 and <1.0))
same,MIC,"[8]; VRS2, compound alone, read-out: MIC compound",12 µg/mL
same,MIC,"[9]; hVISA 2275, compound alone, read-out: MIC compound",12 µg/mL
same,Synergy category,"[9]; hVISA 2275, with vancomycin, listed as Clo",partial (partially potentiated vancomycin (FIC i>0.5 and <1.0))
same,MIC,"[10]; VRS1, compound alone, read-out: MIC compound",12 µg/mL
same,FICi V + compound,[10]; VRS1,0.75
same,Synergy category,[10]; VRS1,partially potentiated (partially potentiated vancomycin (FIC i>0.5 and <1.0))
same,Synergy category,"[10]; VRS1, listed as Clo",partial (partially potentiated vancomycin (FIC i>0.5 and <1.0))
CN[C@H](CC(C)C)C(=O)N[C@H]1C(=O)N[C@@H](CC(N)=O)C(=O)N[C@H]2C(=O)N[C@H]3C(=O)N[C@H](C(=O)N[C@H](C(=O)O)c4cc(O)cc(O)c4-c4cc3ccc4O)[C@H](O)c3ccc(c(Cl)c3)Oc3cc2cc(c3O[C@@H]2O[C@H](CO)[C@@H](O)[C@H](O)[C@H]2O[C@H]2C[C@](C)(N)[C@H](O)[C@H](C)O2)Oc2ccc(cc2Cl)[C@H]1O [vancomycin],MIC,"[7]; VISA, read-out: MIC Van, VISA 2283, vancomycin alone",16 µg/mL
same,MIC Van,"[7]; VISA 2283, vancomycin alone",8 µg/mL
same,MIC Van,"[7]; VISA 2283, vancomycin alone, listed as Van",8 µg/mL
same,MIC,[8]; read-out: MIC Van,16 µg/mL
same,MIC,[9]; read-out: MIC Van,4 µg/mL
same,MIC,[10]; read-out: MIC Van,1020 µg/mL
C[C@H]1[C@H](C)CC[C@]2(C(=O)O)CC[C@]3(C)C(=CC[C@@H]4[C@@]5(C)CC[C@H](O)C(C)(C)[C@@H]5CC[C@]43C)[C@H]12 [Ursolic acid],Effect on vraSR transcription,[1],repress (“vraSR repressors” (mean RL of <0.8))
same,RL avg (relative luminescence),[1],0.71
same,OD600 category,[2],inhibited (of <0.8 were classified as oxacillin synergists or potentiators)
same,RG avg (relative growth),[2],0.77
same,Effect on vraSR Transcription: Compound alone,[4],stimulate
"CC1=CC(=O)c2ccccc2C1=O [Menadione, 2-Methylnaphthalene-1,4-dione]",Effect on vraSR transcription,[1],repress (“vraSR repressors” (mean RL of <0.8))
same,RL avg (relative luminescence),[1],0.47
same,OD600 category,[2],inhibited (of <0.8 were classified as oxacillin synergists or potentiators)
same,RG avg (relative growth),[2],0.69
same,oxacillin MIC,"[3]; strain 923, Men 10.8 μM",16 µg/mL
same,oxacillin MIC,"[3]; strain 923, Men 12.3 μM",16 µg/mL
same,oxacillin MIC,"[3]; strain 923, Men 14.1 μM",16 µg/mL
same,oxacillin MIC,"[3]; strain 923, Men 16.1 μM",2 µg/mL
same,oxacillin MIC,"[3]; strain 923, Men 18.4 μM",2 µg/mL
same,oxacillin MIC,"[3]; strain 923, Men 21 μM",2 µg/mL
same,oxacillin MIC,"[3]; strain 923, Men 24 μM",2 µg/mL
same,FICi (FIC index) with oxacillin,"[3]; strain 923, in at least one combination (well)",> 0.5
same,MIC of oxacillin,"[3]; strain 923, menadione at 16 μM",2 µg/mL
same,classification of lux screen result against qRT-PCR (true/false repressor or stimulator),[4],true vraSR expression repressors
same,Effect on vraSR Transcription: With oxacillin,[4],vraR inhibitors; also recorded: repress
CC/C(=C(/CC)c1ccc(O)cc1)c1ccc(O)cc1 [Diethylstilbestrol],Effect on vraSR transcription,[1],repress (“vraSR repressors” (mean RL of <0.8))
same,RL avg (relative luminescence),[1],0.26
same,OD600 category,[2],inhibited (of <0.8 were classified as oxacillin synergists or potentiators)
same,RG avg (relative growth),[2],0.41
same,Effect on vraSR Transcription: With oxacillin,[4],super-stimulate
same,Effect on vraSR Transcription: With oxacillin,[4]; listed as diethylstilbesterol,enhanced oxacillin's effect on vraR transcription
same,Effect on vraSR Transcription: Compound alone,[4],None
